Entries after “also recorded” stand apart in the source; their conditions may differ.
Experiments:
LD50 in rats = conditions: rat, in vivo
Description: (§1) Toxicity of compound A has been studied by obtaining LD50 values in mice and rats.

PC12 cells [1] = experiment: Viability of PC12 cells in the presence of Aβ (MTT method); format: cell-based, rat; conditions: for Suppression of neuron death caused by Aβ (in words): Aβ 10 μM, compound 0.1, 1 or 2.5 μM, PC12; for viability at 0.1 µM / viability at 1 µM / viability at 2.5 µM: Rattus norvegicus, PC-12, 48 h, read-out: Viability of cells (% of control)
Procedure: PC12 cells (derived from rats, chromaffin tumor) were cultured and subcultured in a 100 mm dish (made of Corning) coated with polylysine and containing a DMEM medium supplemented with 10% FCS and 5% horse serum (product of Sigma). Briefly, PC12 cells (1×10^6 cells/dish) were seeded in a 100 mm dish coated with polylysine. In order to induce differentiation of the PC12 cells, the cells were grown for 7 days in a DMEM medium containing 5% FCS, 50 ng/ml NGF, and 1% horse serum. The PC12 cells were then peeled off through pipetting and suspended in a suitable medium to prepare a cell suspension. The cell suspension was seeded into each well of a polylysine-coated 96-well dish (1×10^4 cells/well). Subsequently, Aβ (Bachem Feinchmikalien AG) was added so that a final concentration of 10 μM was achieved. Compound A was also added so that a final concentration of 0.1, 1.0, or 2.5 μM was achieved. […] The cells were cultured for 48 hours from the addition of compound A or compound B.
An MTT reagent (3-(4,5-dimethylthiazole-2-yl)-2,5-diphenyl tetrazolium bromide) was added to the thus-treated cells, incubation was performed for 4 hours, and the cells were lysed. The subsequent procedure was performed using a so-called MTT method, which employs colorimetry based on a reduction reaction of the reagent, to thereby obtain the viability of the cells in the suspension (Behl, C. et al., Cell, 77: 817-827, 1994). [drawing 1]

mice or rats = experiment: Adverse side effects at high dose in mice or rats; format: in vivo
LD50 in mice = conditions: mouse, in vivo, oral
Description: as §1

PC12 cells [2] = experiment: Generation of hydrogen peroxide in PC12 cells to which SNAP was added (DCFH, FACS); format: cell-based, rat; conditions: for Amounts of generated H2O2 (% log fluorescence of control): n = 3
Procedure: PC12 cells (derived from rats, chromaffin tumor) were cultured and subcultured in a 100 mm dish (made of Corning) coated with polylysine and containing a DMEM medium supplemented with 10% FCS and 5% horse serum (product of Sigma). Briefly, PC12 cells (1×10^6 cells/dish) were seeded in a 100 mm dish coated with polylysine. In order to induce differentiation of the PC12 cells, the cells were grown for 7 days in a DMEM medium containing 5% FCS, 50 ng/ml NGF, and 1% horse serum. The PC12 cells were then peeled off through pipetting and suspended in a suitable medium to prepare a cell suspension. The cell suspension was seeded into each well of a […], polylysine-coated 96-well dish (1×10^4 cells/well). After adhesion of the cells was confirmed, the following procedure was performed.
The thus-adhered PC12 cells were placed in a DMEM medium. To the cells were added 10 μM of SNAP and 2.5 μM of compound A. For control groups, only SNAP was added. Each sample was incubated for 3 hours. Thereafter, a solution of DCFH-DA (Molecular Probes, Inc.) in DMSO (1 mg/413 μl) which had been prepared in advance was added to each PC12-containing sample so that a final concentration of 5 μM was obtained, and the samples were then incubated for 30 minutes. The cells were removed using trypsin-EDTA, and recovered via centrifugation (1,000 rpm×5 min.). The recovered cells were suspended in 50 μl of PBS(-) while being cooled with ice. The amount of intracellular hydrogen peroxide was determined using a flow cytometer; The cell suspension was subjected to FACS (fluorescence-activated cell sorting), and the amount of the fluorescent substance, […], which had been oxidized by peroxides was measured.

[3] = system: glutathione peroxidase-like activities; conditions: stated in description of control compound; cited from earlier work

Compound | LD50 (LD50 in rats; ip, intraperitoneal) [mg/kg] | LD50 (LD50 in rats; oral) [mg/kg] | Suppression of neuron death caused by Aβ (in words) (PC12 cells [1]) | viability at 0.1 µM (PC12 cells [1]) [%] | viability at 1 µM (PC12 cells [1]) [%] | viability at 2.5 µM (PC12 cells [1]) [%] | Adverse side effects (mice or rats) | LD50 (LD50 in mice) [mg/kg] | Suppression of generation of hydrogen peroxide (in words) (PC12 cells [2]; SNAP 10 μM, compound A 2.5 μM, P≤0.0015) | Amounts of generated H2O2 (% log fluorescence of control) (PC12 cells [2]; SNAP 10 μM, compound A 2.5 μM, P ≤ 0.0015 vs SNAP) | Suppression of generation of hydrogen peroxide induced by Aβ (in words) (PC12 cells [2]; concluding statement) | Amounts of generated H2O2 (% log fluorescence of control) (PC12 cells [2]; SNAP 10 μM alone) | Increase of generation of hydrogen peroxide over the level without SNAP (PC12 cells [2]; SNAP 10 μM, 3 hours) | Glutathione peroxidase-like activities [3]
O=c1c2ccccc2[se]n1-c1ccccc1 [Compound A, 2-phenyl-1,2-benzisoselenazol-3(2H)-one] | 580 | ≥ 6810 | neuron death suppressed significantly in all cases | 45 ± 2.1 | 59 ± 14.5 | 66 ± 4.5 | no problematic adverse side effects were observed | ≥ 6810 | significantly suppressed; also recorded: satisfactorily suppressed | 45.7 ± 6.03 % log fluorescence of control | significantly suppresses generation of hydrogen peroxide |  |  | 
CC(=O)NC(C(=O)O)C(C)(C)SN=O (racemic) [SNAP, Snitroso-N-acetyl-DL-penicillamine, reference compound] |  |  |  |  |  |  |  |  |  |  |  | 135.8 ± 5.25 % log fluorescence of control | 1.3-1.4 times | 
O=c1c2ccccc2sn1-c1ccccc1 [B, 2-phenyl-1,2-benzothiazol-3(2H)-one, reference compound] |  |  | the death rate could not be suppressed | 14 ± 4.5 | 13 ± 1 | 10 ± 5 |  |  |  |  |  |  |  | having no glutathione peroxidase-like activities

From patent publication US5948800A, “Preventive or therapeutic drug for Alzheimer's disease” (A. Nattermann & Cie. GmbH, priority 1996, dated 1999)
